Reference: ChEMBL document CHEMBL1201862, “PubChem BioAssay data set” (2004)
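Protocol summary: plate cells (96-well), add compound at 5 concentrations, incubate 48 h, interpolate endpoints linearly. Here, GI50 denotes the concentration required for 50% inhibition of growth.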 The source made the active and inactive calls. Rule as the data show it: active = GI50 up to about 1.1 µM and inactive = higher.

Tests used:
Assay in all cases: DTP human tumour cell line panel, 48 h
[1] = tested on: SW-620
[2] = tested on: OVCAR-8
[3] = tested on: LOX IMVI
[4] = tested on: DU-145
[5] = tested on: OVCAR-5
[6] = tested on: UACC-62
[7] = tested on: A549
[8] = tested on: M14
[9] = tested on: CCRF-CEM
[10] = tested on: SN12C
[11] = tested on: Hs-578T
[12] = tested on: PC-3
[13] = tested on: HCT-15
[14] = tested on: SF-295
[15] = tested on: HCT-116
[16] = tested on: HT-29
[17] = tested on: RPMI-8226
[18] = tested on: ACHN
[19] = tested on: OVCAR-3
[20] = tested on: HOP-92
[21] = tested on: A498
[22] = tested on: SK-MEL-5
[23] = tested on: COLO 205
[24] = tested on: SR
[25] = tested on: HCC 2998
[26] = tested on: U-251
[27] = tested on: MCF7
[28] = tested on: HL-60
[29] = tested on: SK-OV-3
[30] = tested on: NCI-H23
[31] = tested on: EKVX
[32] = tested on: TK-10
[33] = tested on: T47D
[34] = tested on: Malme-3M
[35] = tested on: RXF 393
[36] = tested on: SK-MEL-28
[37] = tested on: MDA-MB-231
[38] = tested on: NCI-H226
[39] = tested on: MOLT-4
[40] = tested on: UO-31
[41] = tested on: NCI/ADR-RES
[42] = tested on: OVCAR-4
[43] = tested on: 786-0
[44] = tested on: SF-268
[45] = tested on: MDA-MB-435
[46] = tested on: SNB-75
[47] = tested on: NCI-H460
[48] = tested on: CAKI-1
[49] = tested on: MDA-N
[50] = tested on: SK-MEL-2
[51] = tested on: IGROV-1
[52] = tested on: K562
[53] = tested on: NCI-H522
[54] = tested on: HOP-62
[55] = tested on: SNB-19
[56] = tested on: BT-549
[57] = tested on: KM12
[58] = tested on: UACC-257

In the case of `O=C(Nc1ccc2ccccc2c1)c1cc2cc(CCl)ccc2oc1=O`, the GI50 [1] is reported as > 100 µM (inactive), the GI50 [2] is reported as > 100 µM (inactive) and the GI50 [3] is reported as > 100 µM (inactive). For the same molecule, the GI50 [4] was > 100 µM (inactive), the GI50 [5] was > 100 µM (inactive) and the GI50 [6] was > 100 µM (inactive). The GI50 [7] was > 100 µM (inactive), the GI50 [8] was > 100 µM (inactive) and the GI50 [9] was 55.5 µM (inactive). The GI50 [10] was > 100 µM (inactive), the GI50 [11] was 1.55 µM (inactive) and the GI50 [12] was > 100 µM (inactive). The GI50 [13] was over 100 µM, the GI50 [14] was 33.3 µM (inactive) and the GI50 [15] was > 100 µM (inactive). For the same molecule, the GI50 [16] was > 100 µM (inactive), the GI50 [17] was > 100 µM (inactive) and the GI50 [18] was > 100 µM (inactive). For the same molecule, the GI50 [19] was > 100 µM (inactive), the GI50 [20] was 51.5 µM (inactive) and the GI50 [21] was > 100 µM (inactive). For the same molecule, the GI50 [22] was > 100 µM (inactive), the GI50 [23] was > 100 µM (inactive) and the GI50 [24] was > 100 µM (inactive). For the same molecule, the GI50 [25] was > 100 µM (inactive), the GI50 [26] was 30.8 µM (inactive) and the GI50 [27] was 38.5 µM (inactive). For the same molecule, the GI50 [28] was > 100 µM (inactive), the GI50 [29] was 38.5 µM (inactive) and the GI50 [30] was 19 µM (inactive). For the same molecule, the GI50 [31] was > 100 µM (inactive), the GI50 [32] was 33.2 µM (inactive) and the GI50 [33] was > 100 µM (inactive). For the same molecule, the GI50 [34] was 87.7 µM (inactive), the GI50 [35] was 22 µM (inactive) and the GI50 [36] was > 100 µM (inactive). For the same molecule, the GI50 [37] was 49 µM (inactive), the GI50 [38] was 57.5 µM (inactive) and the GI50 [39] was > 100 µM (inactive). For the same molecule, the GI50 [40] was > 100 µM (inactive), the GI50 [41] was > 100 µM (inactive) and the GI50 [42] was > 100 µM (inactive). For the same molecule, the GI50 [43] was 39.4 µM (inactive), the GI50 [44] was 14.2 µM (inactive) and the GI50 [45] was > 100 µM (inactive). The GI50 [46] was 15.2 µM (inactive), the GI50 [47] was > 100 µM (inactive) and the GI50 [48] was > 100 µM (inactive). For the same molecule, the GI50 [49] was > 100 µM (inactive), the GI50 [50] was 24 µM (inactive) and the GI50 [51] was > 100 µM (inactive). For the same molecule, the GI50 [52] was 54 µM (inactive), the GI50 [53] was 74 µM (inactive) and the GI50 [54] was 53.5 µM (inactive). The GI50 [55] was 27.6 µM (inactive), the GI50 [56] was 44 µM (inactive) and the GI50 [57] was > 100 µM (inactive). The GI50 [58] was > 100 µM (inactive).
